# Structures can show the parent of a compound that is named as a salt.
row,SMILES,melting point
1,"C[C@@H]1CN(c2ccc(C(F)(F)F)nc2)C[C@H](C)N1CC(=O)N1CCc2nc(-c3ccccc3)sc2C1 [compound 18, 2-[(2S,6R)-2,6-dimethyl-4-(6-trifluoromethylpyridin-3-yl)piperazin-1-yl]-1-(2-phenyl-6,7-dihydro-4H-thiazolo[5,4-c]pyridin-5-yl)ethanone]",168 to 169 °C
2,"O=C(CN1CCN(c2ccc(C(F)(F)F)cn2)C(=O)C1)N1CCc2nn(-c3ccccn3)cc2C1 [compound 119, 4-[2-oxo-2-(2-pyridin-2-yl-2,4,6,7-tetrahydropyrazolo[4,3-c]pyridin-5-yl)ethyl]-1-(5-trifluoromethylpyridin-2-yl)piperazin-2-one]",139 to 140 °C
3,Cn1cc2c(n1)CCN(C(=O)CN1CC3CCC(C1)N3c1ncc(F)cn1)C2,147 to 149 °C
4,"COC(=O)c1ccc(N2C[C@@H](C)N(CC(=O)N3CCc4nn(-c5ccccc5)cc4C3)[C@@H](C)C2)nc1 (as salt: HCl) [compound 23, 6-{(3S,5R)-3,5-dimethyl-4-[2-oxo-2-(2-phenyl-2,4,6,7-tetrahydropyrazolo[4,3-c]pyridin-5-yl)ethyl]piperazin-1-yl}nicotinic acid methyl ester]",210 to 212 °C
5,"COc1ccc(-c2nc3c(s2)CN(C(=O)CN2CC4CC2CN4c2ccc(C(F)(F)F)cn2)CC3)cc1 (centres unmarked) [compound 133, 1-[2-(4-methoxyphenyl)-6,7-dihydro-4H-thiazolo[5,4-c]pyridin-5-yl]-2-[5-(5-trifluoromethylpyridin-2-yl)-2,5-diazabicyclo[2.2.1]hept-2-yl]ethanone]",70 to 73 °C
6,O=C(CN1CC2CCC(C1)N2c1ccc(C(F)(F)F)cn1)N1CCc2nn(-c3ccccn3)cc2C1,170 to 171 °C
7,"C[C@@H]1CN(c2ncc(F)cn2)C[C@H](C)N1CC(=O)N1CCc2nn(-c3ccccc3)cc2C1 [compound 17, 2-[(2S,6R)-4-(5-fluoropyrimidin-2-yl)-2,6-dimethylpiperazin-1-yl]-1-(2-phenyl-2,4,6,7-tetrahydropyrazolo[4,3-c]pyridin-5-yl)ethanone]",174 to 175 °C
8,"O=C(CN1CC2CC1CN2c1ccc(C(F)(F)F)nn1)N1CCc2nn(-c3ccc(C(F)(F)F)cn3)cc2C1 (centres unmarked) [compound 107, 2-[5-(6-trifluoromethylpyridazin-3-yl)-2,5-diazabicyclo[2.2.1]hept-2-yl]-1-[2-(5-trifluoromethylpyridin-2-yl)-2,4,6,7-tetrahydropyrazolo[4,3-c]pyridin-5-yl]ethanone]",140 to 141 °C
9,"C[C@@H]1CN(c2ccc(S(C)(=O)=O)cn2)C[C@H](C)N1CC(=O)N1CCc2nn(-c3ccccc3)cc2C1 [compound 131, 2-[(2S,6R)-4-(5-methanesulphonylpyridin-2-yl)-2,6-dimethylpiperazin-1-yl]-1-(2-phenyl-2,4,6,7-tetrahydropyrazolo[4,3-c]pyridin-5-yl)ethanone]",103 to 105 °C
10,N#Cc1ccc(N2C3CCC2CN(CC(=O)N2CCc4nc(-c5ccc(F)cc5)sc4C2)C3)nc1,212 to 213 °C
11,"O=C(CN1CCCN(c2cccnc2)CC1)N1CCc2nc(-c3ccccc3)sc2C1 (as salt: HCl) [compound 30, 1-(2-phenyl-6,7-dihydro-4H-thiazolo[5,4-c]pyridin-5-yl)-2-(4-pyridin-3-yl-[1,4]diazepan-1-yl)ethanone]",142 to 145 °C
12,O=C(CN1CC2CCC(C1)N2c1ncc(F)cn1)N1CCc2nc(-c3ccccc3)[nH]c2C1,130 to 132 °C
13,"CCn1cc2c(n1)CCN(C(=O)CN1CCN(c3ccc(C(F)(F)F)cn3)C(=O)C1)C2 [compound 148, 4-[2-(2-ethyl-2,4,6,7-tetrahydropyrazolo[4,3-c]pyridin-5-yl)-2-oxoethyl]-1-(5-trifluoromethylpyridin-2-yl)piperazin-2-one]",151 to 152 °C
14,"C[C@@H]1CN(c2ccc(C(F)(F)F)cn2)C[C@H](C)N1CC(=O)N1CCc2nc(-c3ccc(F)cc3)[nH]c2C1 [compound 124, 2-[(2S,6R)-2,6-dimethyl-4-(5-trifluoromethylpyridin-2-yl)piperazin-1-yl]-1-[2-(4-fluorophenyl)-3,4,6,7-tetrahydroimidazo[4,5-c]pyridin-5-yl]ethanone]",145 to 147 °C
15,O=C(CN1CC2CCC(C1)N2c1ncc(F)cn1)N1CCc2oc(-c3ccccc3)nc2C1,88 to 89 °C
16,O=C(CN1CC2CCC(C1)N2c1ccc(C(F)(F)F)cn1)N1CCc2nn(-c3ccc(C(F)(F)F)cn3)cc2C1,192 to 193 °C
17,O=C(CN1CC2CCC(C1)N2c1ncc(F)cn1)N1CCc2nc(-c3cccnc3)sc2C1,200 to 202 °C
18,CCn1cc2c(n1)CCN(C(=O)CN1CC3CCC(C1)N3c1ccc(C(F)(F)F)cn1)C2,99 to 100 °C
19,"O=C(CN1CCN(c2ccnc3cc(Cl)ccc23)CC1)N1CCc2nn(-c3ccccc3)cc2C1 [compound 113, 2-[4-(7-chloroquinolin-4-yl)piperazin-1-yl]-1-(2-phenyl-2,4,6,7-tetrahydropyrazolo[4,3-c]pyridin-5-yl)ethanone]",100 to 101 °C
20,O=C(CN1CC2CCC(C1)N2c1ncc(F)cn1)N1CCc2c(cnn2-c2ccccc2)C1,148 to 150 °C
21,"C[C@@H]1CN(c2ccc(C(=O)O)cn2)C[C@H](C)N1CC(=O)N1CCc2nn(-c3ccccc3)cc2C1 [compound 149, 6-{(3S,5R)-3,5-dimethyl-4-[2-oxo-2-(2-phenyl-2,4,6,7-tetrahydropyrazolo[4,3-c]pyridin-5-yl)ethyl]piperazin-1-yl}nicotinic acid]",208 to 209 °C
22,Cc1nc2c(s1)CN(C(=O)CN1CC3CCC(C1)N3c1ncc(F)cn1)CC2,137 to 138 °C
23,"O=C(CN1CCN(c2ccc(C(F)(F)F)cn2)C(=O)C1)N1CCc2c(cnn2CC(F)(F)F)C1 (as salt: oxalate) [compound 66, 4-{2-oxo-2-[1-(2,2,2-trifluoroethyl)-1,4,6,7-tetrahydropyrazolo[4,3-c]pyridin-5-yl]ethyl}-1-(5-trifluoromethylpyridin-2-yl)piperazin-2-one]",82 to 83 °C
24,"C[C@@H]1CN(c2ccc(C(=O)O)cn2)C[C@H](C)N1CC(=O)N1CCc2nn(-c3ccccn3)cc2C1 [compound 140, 6-{(3S,5R)-3,5-dimethyl-4-[2-oxo-2-(2-pyridin-2-yl-2,4,6,7-tetrahydropyrazolo[4,3-c]pyridin-5-yl)ethyl]piperazin-1-yl}nicotinic acid]",147 to 150 °C
25,"C[C@@H]1CN(c2ccc(C(F)(F)F)cn2)C[C@H](C)N1CC(=O)N1CCc2cc(-c3ccccc3)oc2C1 [compound 97, 2-[(2S,6R)-2,6-dimethyl-4-(5-trifluoromethylpyridin-2-yl)piperazin-1-yl]-1-(2-phenyl-4,7-dihydro-5H-furano[2,3-c]pyridin-6-yl)ethanone]",162 °C
26,"C[C@@H]1CN(c2ccc(C(=O)O)cn2)C[C@H](C)N1CC(=O)N1CCc2nc(-c3ccccc3)[nH]c2C1 [compound 116, 6-{(3S,5R)-3,5-dimethyl-4-[2-oxo-2-(2-phenyl-3,4,6,7-tetrahydroimidazo[4,5-c]pyridin-5-yl)ethyl]piperazin-1-yl}nicotinic acid]",190 to 192 °C

# From patent publication US8580790B2, “(Heterocycle/condensed piperidine)-(piperazinyl)-1-alkanone or (heterocycle/condensed pyrrolidine)-(piperazinyl)-1-alkanone derivatives and use thereof as p75 inhibitors” (Sanofi, priority 2009, dated 2013)
